Data published in patent US20230265151A1, “GIP/GLP1 CO-AGONIST COMPOUNDS” (priority 2020, published 2023).
Where two headings read alike, the source gives them in different places.

Key:
hGIPR = molecular target: T1, hGIPR (Homo sapiens, UniProt P48546); experiment: Functional cAMP formation (HTRF) in HEK-293 clonal cells expressing hGIPR, 0.1% bovine casein, without or with 1.0% human serum albumin; format: cell-based; settings: for EC50: geometric mean
T1 construct: expressed in transfected cells
T1 sequence (P48546 22-466): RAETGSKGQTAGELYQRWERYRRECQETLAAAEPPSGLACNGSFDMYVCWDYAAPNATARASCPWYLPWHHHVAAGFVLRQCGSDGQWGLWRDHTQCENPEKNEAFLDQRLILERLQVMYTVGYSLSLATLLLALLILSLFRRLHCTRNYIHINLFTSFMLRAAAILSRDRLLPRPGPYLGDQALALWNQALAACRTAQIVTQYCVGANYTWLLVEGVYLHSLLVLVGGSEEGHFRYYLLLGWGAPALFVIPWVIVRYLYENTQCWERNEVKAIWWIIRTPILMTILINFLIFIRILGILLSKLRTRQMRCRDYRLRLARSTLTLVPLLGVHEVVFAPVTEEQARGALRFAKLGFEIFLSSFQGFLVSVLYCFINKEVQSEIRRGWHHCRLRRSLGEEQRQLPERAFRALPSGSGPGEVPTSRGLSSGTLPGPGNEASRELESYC
Method in brief: (§1)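 Readings of the HTRF 665/620 nm ratio, which falls as cAMP rises, were converted to nM cAMP using a standard curve after 30 min peptide exposure at 37° C.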

[1] = molecular target: T2, human GLP-1 receptor (hGLP-1R) (Homo sapiens, UniProt P43220); experiment: [125I]-GLP-1 binding, SPA with membranes of HEK293 cells expressing hGLP-1R
T2 construct: expressed in transfected cells; crude membranes

hGCGR = molecular target: T3, hGCGR (Homo sapiens, UniProt P47871); experiment: Functional cAMP formation (HTRF) in HEK-293 clonal cells expressing hGCGR, 0.1% bovine casein, without or with 1.0% human serum albumin; format: cell-based
T3 construct: expressed in transfected cells
Method in brief: as §1

hGLP-1R = hGLP-1R (Homo sapiens, UniProt P43220); experiment: Functional cAMP formation (HTRF) in HEK-293 clonal cells expressing hGLP-1R, 0.1% bovine casein, without or with 1.0% human serum albumin; format: cell-based; design: expressed in transfected cells; settings: for Emax: 0.1% bovine casein, arithmetic mean; for EC50: geometric mean
Method in brief: as §1

[2] = molecular target: T4, human Gcg receptor (hGcgR) (Homo sapiens, UniProt P47871); experiment: [125I]-Glucagon binding, SPA with membranes of HEK293 cells expressing hGcgR
T4 construct: expressed in transfected cells; crude membranes

[3] = human GLP-1R, geometric mean (SEM, n), read-out: Binding Affinity Ki, nM (SEM, n) hGLP-1R
[4] = cAMP, incubated at 37° C., 0.1% bovine casein (no human serum albumin), geometric mean, read-out: hGCGR EC50, nM (SEM, n)
[5] = cAMP, incubated at 37° C., 0.1% bovine casein (no human serum albumin), read-out: hGLP-1R EC50, nM (SEM, n)
[6] = human GcgR, geometric mean (SEM, n), read-out: Binding Affinity Ki, nM (SEM, n) hGCGR

T3 sequence (P47871 26-477): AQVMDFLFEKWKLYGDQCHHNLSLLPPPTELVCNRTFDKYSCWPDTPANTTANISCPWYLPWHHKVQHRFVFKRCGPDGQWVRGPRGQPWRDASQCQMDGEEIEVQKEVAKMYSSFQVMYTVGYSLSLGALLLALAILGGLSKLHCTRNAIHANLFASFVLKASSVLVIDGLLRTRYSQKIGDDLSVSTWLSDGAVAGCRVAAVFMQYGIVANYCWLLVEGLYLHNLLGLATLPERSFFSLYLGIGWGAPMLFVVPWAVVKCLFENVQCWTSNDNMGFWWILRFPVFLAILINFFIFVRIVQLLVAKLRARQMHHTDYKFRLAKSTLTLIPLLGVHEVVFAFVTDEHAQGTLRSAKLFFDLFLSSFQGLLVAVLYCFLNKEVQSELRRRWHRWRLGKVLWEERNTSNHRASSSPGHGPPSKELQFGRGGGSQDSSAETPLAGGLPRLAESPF
T4 sequence (P47871 26-477): as above
hGLP-1R, sequence (P43220 24-463): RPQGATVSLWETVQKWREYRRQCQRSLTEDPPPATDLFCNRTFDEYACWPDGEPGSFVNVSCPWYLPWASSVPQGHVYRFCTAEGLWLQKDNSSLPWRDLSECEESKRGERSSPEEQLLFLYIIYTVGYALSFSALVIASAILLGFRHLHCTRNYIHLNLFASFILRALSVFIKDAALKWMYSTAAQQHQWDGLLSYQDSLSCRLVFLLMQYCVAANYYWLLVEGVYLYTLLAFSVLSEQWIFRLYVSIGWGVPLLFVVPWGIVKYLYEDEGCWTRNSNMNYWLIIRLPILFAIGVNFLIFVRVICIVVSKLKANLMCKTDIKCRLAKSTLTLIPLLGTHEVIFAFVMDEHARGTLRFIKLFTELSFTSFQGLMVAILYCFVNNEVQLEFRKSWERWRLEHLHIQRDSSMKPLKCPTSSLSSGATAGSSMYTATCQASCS

CC[C@H](C)[C@H](NC(=O)[C@H](CC(C)C)NC(=O)[C@](C)(Cc1ccc(O)cc1)NC(=O)[C@@H](CCC(=O)O)NC(=O)[C@@H](NC(=O)[C@H](Cc1ccccc1)NC(=O)[C@H](CCC(=O)O)NC(=O)C(C)(C)NC(=O)[C@H](CCC(N)=O)NC(=O)[C@H](C)NC(=O)[C@H](CCCCNC(=O)COCCOCCNC(=O)COCCOCCNC(=O)CC[C@H](NC(=O)CCCCCCCCCOc1ccc(C(=O)O)cc1)C(=O)O)NC(=O)[C@H](CCCN)NC(=O)[C@H](CC(=O)O)NC(=O)[C@H](CC(C)C)NC(=O)[C@](C)(CC(C)C)NC(=O)[C@@H](NC(=O)[C@H](CO)NC(=O)[C@H](Cc1ccncc1)NC(=O)[C@H](CC(=O)O)NC(=O)[C@H](CO)NC(=O)[C@@H](NC(=O)[C@](C)(Cc1ccccc1F)NC(=O)[C@@H](NC(=O)CNC(=O)[C@H](CCC(=O)O)NC(=O)C(C)(C)NC(=O)[C@@H](N)Cc1ccc(O)cc1)[C@@H](C)O)[C@@H](C)O)[C@@H](C)CC)[C@@H](C)CC)C(=O)N[C@@H](CCC(=O)O)C(=O)NCC(=O)NCC(=O)N[C@@H](CCCCNC(=O)COCCOCCNC(=O)COCCOCCNC(=O)CC[C@H](NC(=O)CCCCCCCCCOc1ccc(C(=O)O)cc1)C(=O)O)C(=O)N[C@@H](CO)C(=O)N[C@@H](CO)C(=O)NCC(=O)N[C@@H](C)C(=O)N1CCC[C@H]1C(=O)N1CCC[C@H]1C(=O)N1CCC[C@H]1C(=O)N[C@@H](CO)C(N)=O [Example 2]
Emax (hGIPR; HEK293, read-out: hGIPR Emax, % ± SEM, 0.1% bovine casein and 1.0% human serum albumin, 37° C., percent of maximal response to GIP(1-42)NH2): 87.8 ± 5.11%
Emax (hGIPR; HEK293, read-out: hGIPR Emax, % ± SEM, percent of maximal response to GIP(1-42)NH2, 37° C., 0.1% bovine casein, arithmetic mean): 93 ± 0.813%
EC50 (hGIPR; hGIPR EC50, nM (SEM, n), 0.1% bovine casein and 1.0% human serum albumin, 37° C.): 0.659 nM
EC50 (hGIPR; hGIPR EC50, nM (SEM, n), cAMP, incubated at 37° C., 0.1% bovine casein (no human serum albumin)): 0.0154 nM
Ki [1]: 1.04 nM
EC50 (hGCGR; hGCGR EC50, nM (SEM, n), 0.1% bovine casein and 1.0% human serum albumin, 37° C., geometric mean): > 9950 nM
EC50 (hGCGR; hGCGR EC50, nM (SEM, n), cAMP, incubated at 37° C., 0.1% bovine casein (no human serum albumin), geometric mean): > 9950 nM
Emax (hGLP-1R; HEK293, read-out: hGLP-1R Emax, % ± SEM, percent of maximal response to GLP-1(7-36)NH2, 37° C.): 93.1 ± 5.83%
EC50 (hGLP-1R; hGLP-1R EC50, nM (SEM, n), 0.1% bovine casein and 1.0% human serum albumin, 37° C.): 32.1 nM
EC50 (hGLP-1R; hGLP-1R EC50, nM (SEM, n), cAMP, incubated at 37° C., 0.1% bovine casein (no human serum albumin)): 1.14 nM
Ki [2]: > 958 nM

CC[C@H](C)[C@H](NC(=O)[C@H](CC(C)C)NC(=O)[C@](C)(Cc1ccc(O)cc1)NC(=O)[C@@H](CCC(=O)O)NC(=O)[C@@H](NC(=O)[C@H](Cc1ccccc1)NC(=O)[C@H](CCC(=O)O)NC(=O)C(C)(C)NC(=O)[C@H](CCC(N)=O)NC(=O)[C@H](C)NC(=O)[C@H](CCCCNC(=O)COCCOCCNC(=O)COCCOCCNC(=O)CC[C@H](NC(=O)CCCCCCCCCCCCC(=O)O)C(=O)O)NC(=O)[C@H](CCCN)NC(=O)[C@H](CC(=O)O)NC(=O)[C@H](CC(C)C)NC(=O)[C@](C)(CC(C)C)NC(=O)[C@@H](NC(=O)[C@H](CO)NC(=O)[C@@](C)(NC(=O)[C@H](CC(=O)O)NC(=O)[C@H](CO)NC(=O)[C@@H](NC(=O)[C@](C)(Cc1ccccc1F)NC(=O)[C@@H](NC(=O)CNC(=O)[C@H](CCC(=O)O)NC(=O)C(C)(C)NC(=O)[C@@H](N)Cc1ccc(O)cc1)[C@@H](C)O)[C@@H](C)O)C(C)C)[C@@H](C)CC)[C@@H](C)CC)C(=O)N[C@@H](CCC(=O)O)C(=O)NCC(=O)NCC(=O)N[C@@H](CCCCNC(=O)COCCOCCNC(=O)COCCOCCNC(=O)CC[C@H](NC(=O)CCCCCCCCCCCCC(=O)O)C(=O)O)C(=O)N[C@@H](CO)C(=O)N[C@@H](CO)C(=O)NCC(=O)N[C@@H](C)C(=O)N1CCC[C@H]1C(=O)N1CCC[C@H]1C(=O)N1CCC[C@H]1C(=O)N[C@@H](CO)C(N)=O [Example 52]
Emax (hGIPR; HEK293, 0.1% bovine casein and 1.0% human serum albumin, 37° C., percent of maximal response to GIP(1-42)NH2, read-out: hGIPR Emax, % ± SEM): 87.6%
Ki [1, 3]: 1.16 nM
EC50 (hGCGR; 0.1% bovine casein and 1.0% human serum albumin, 37° C., geometric mean, read-out: hGCGR EC50, nM (SEM, n)): > 9950 nM
EC50 (hGCGR; [4]): > 9950 nM
EC50 (hGLP-1R; [5]): 0.384 nM
Ki [2, 6]: > 966 nM

CCCCCCCCCCCC(=O)N[C@@H](CCC(=O)NCCOCCOCC(=O)NCCOCCOCC(=O)NCCCC[C@H](NC(=O)[C@H](CCCN)NC(=O)[C@H](CC(=O)O)NC(=O)[C@H](CC(C)C)NC(=O)[C@](C)(CC(C)C)NC(=O)[C@@H](NC(=O)[C@H](CO)NC(=O)[C@H](Cc1ccncc1)NC(=O)[C@H](CC(=O)O)NC(=O)[C@H](CO)NC(=O)[C@@H](NC(=O)[C@](C)(Cc1ccccc1F)NC(=O)[C@@H](NC(=O)CNC(=O)[C@H](CCC(=O)O)NC(=O)C(C)(C)NC(=O)[C@@H](N)Cc1ccc(O)cc1)[C@@H](C)O)[C@@H](C)O)[C@@H](C)CC)C(=O)N[C@@H](C)C(=O)N[C@@H](CCC(N)=O)C(=O)NC(C)(C)C(=O)N[C@@H](CCC(=O)O)C(=O)N[C@@H](Cc1ccccc1)C(=O)N[C@H](C(=O)N[C@H](CCC(=O)O)C(=O)N[C@@](C)(Cc1ccc(O)cc1)C(=O)N[C@@H](CC(C)C)C(=O)N[C@H](C(=O)N[C@@H](CCCCNC(=O)COCCOCCNC(=O)COCCOCCNC(=O)CC[C@H](NC(=O)CCCCCCCCCCC)C(=O)O)C(=O)NCC(=O)NCC(=O)N1CCC[C@H]1C(=O)N[C@@H](CO)C(=O)N[C@@H](CO)C(=O)NCC(=O)N[C@@H](C)C(=O)N1CCC[C@H]1C(=O)N1CCC[C@H]1C(=O)N1CCC[C@H]1C(=O)N[C@@H](CO)C(N)=O)[C@@H](C)CC)[C@@H](C)CC)C(=O)O [Example 139]
EC50 (hGIPR; cAMP, incubated at 37° C., 0.1% bovine casein (no human serum albumin), read-out: hGIPR EC50, nM (SEM, n)): 0.0108 nM
Ki [1, 3]: 0.268 nM
EC50 (hGCGR; [4]): > 9950 nM
Emax (hGLP-1R; HEK293, percent of maximal response to GLP-1(7-36)NH2, 37° C., read-out: hGLP-1R Emax, % ± SEM): 111%
EC50 (hGLP-1R; [5]): 0.141 nM
Ki [2, 6]: 109 nM

CC[C@H](C)[C@H](NC(=O)[C@H](CC(C)C)NC(=O)[C@](C)(Cc1ccc(O)cc1)NC(=O)[C@H](CCCCNC(=O)COCCOCCNC(=O)[C@H]1CC[C@H](CNC(=O)CC[C@H](NC(=O)CCCCCCCCCCCCC(=O)O)C(=O)O)CC1)NC(=O)[C@@H](NC(=O)[C@H](Cc1ccccc1)NC(=O)[C@H](CCCN)NC(=O)C(C)(C)NC(=O)[C@H](CCC(N)=O)NC(=O)[C@H](C)NC(=O)[C@H](CCC(N)=O)NC(=O)[C@H](CCCN)NC(=O)[C@H](CC(=O)O)NC(=O)[C@H](CC(C)C)NC(=O)[C@](C)(CC(C)C)NC(=O)[C@@H](NC(=O)C(C)(C)NC(=O)[C@H](Cc1ccncc1)NC(=O)[C@H](CC(=O)O)NC(=O)[C@H](CO)NC(=O)[C@@H](NC(=O)[C@](C)(Cc1ccccc1F)NC(=O)[C@@H](NC(=O)CNC(=O)[C@H](CCC(=O)O)NC(=O)C(C)(C)NC(=O)[C@@H](N)Cc1ccc(O)cc1)[C@@H](C)O)[C@@H](C)O)[C@@H](C)CC)[C@@H](C)CC)C(=O)N[C@@H](CCCCNC(=O)COCCOCCNC(=O)[C@H]1CC[C@H](CNC(=O)CC[C@H](NC(=O)CCCCCCCCCCCCC(=O)O)C(=O)O)CC1)C(=O)NCC(=O)NCC(=O)N1CCC[C@H]1C(=O)N[C@@H](CO)C(=O)N[C@@H](CO)C(=O)NCC(=O)N[C@@H](C)C(=O)N1CCC[C@H]1C(=O)N1CCC[C@H]1C(=O)N1CCC[C@H]1C(=O)N[C@@H](CO)C(N)=O [Example 472]
Emax (hGIPR; HEK293, cAMP, 37° C., 0.1% bovine casein and 1.0% human serum albumin, percent of maximal response to GIP(1-42)NH2, read-out: hGIPR Emax, % ± SEM): 76.3%
EC50 (hGIPR; cAMP, 37° C., 0.1% bovine casein (no human serum albumin), read-out: hGIPR EC50, nM (SEM, n)): 0.0131 nM
Ki [1, 3]: 0.254 nM
EC50 (hGCGR; cAMP, 37° C., 0.1% bovine casein (no human serum albumin), geometric mean, read-out: hGCGR EC50, nM (SEM, n)): > 9950 nM
EC50 (hGCGR; cAMP, 37° C., 0.1% bovine casein and 1.0% human serum albumin, geometric mean (SEM, n), read-out: hGCGR EC50, nM (SEM, n)): > 9950 nM
Emax (hGLP-1R; HEK293, cAMP, 37° C., percent of maximal response to GLP-1(7-36)NH2, read-out: hGLP-1R Emax, % ± SEM): 118%
EC50 (hGLP-1R; cAMP, 37° C., 0.1% bovine casein (no human serum albumin), read-out: hGLP-1R EC50, nM (SEM, n)): 0.154 nM
Ki [2, 6]: 258 nM
